Test results reported in patent publication US7915416B2, “Tetrahydroquinolines” (Merck Patent GmbH, priority 2004, dated 2011).

System: cells
Assay: cell cycle experiments (G2/M)
Format: cell-based

For `N=C(N)c1ccc(OCCCCCOc2ccc(C(=N)N)cc2)cc1` [pentamidine], the “effect on cell cycle” value was “maintain cells in the G2/M cell cycle”.
